Measurements: patent US20120238630A1, “COMPOSITIONS COMPRISING NONSTEROIDAL ANTI - INFLAMMATORY DRUGS” (Alfa Wassermann S.P.A., priority 2009, published 2012)

Assay: Bioavailability / systemic FP plasma concentration after oral nebulization of the liquid composition containing FP
Type: in vivo, human
Description: The solutions have been administered to 26 healthy volunteers, among whom 16 were males and 10 females, aged between 18 and 55.
The healthy volunteers received the pharmaceutical composition prepared according to Example 1 in two 200 μl nebulizations three times a day, for a seven-day period, then a single administration on the eighth day.
[…]
During the period of administration of the composition object of the present invention, blood samples were taken before each administration and on days 1, 4, 6, 7 and 8.
The plasma concentration was determined for each patient before the first dose and, successively, in the morning of the days 1, 4, 6, 7 and 8 and after 1, 2, 3, 4, 6, 8, 10, 12, 16 and 24 hours since the last treatment.
Each sample was moved into a test tube containing heparin and centrifuged, and the plasma was divided into 500 μl aliquots and freezed at −80° C.
The following parameters were determined:
Tmax: time wherein Cmax is reached.
AUC: area subtended to the concentration-time curve calculated by means of the linear trapezoidal rule.

[1] = after the last administration (day 8)

With “2-(2-fluoro-4-phenyl-phenyl) propionic acid [FP]” the “FP average plasma concentrations” value (1 hour after the last administration (day 8)) was 0.182 µg/mL, the “FP average plasma concentrations” value (2 hours after the last administration (day 8)) was 0.144 µg/mL and the “FP average plasma concentrations” value (3 hours after the last administration (day 8)) was 0.115 µg/mL. The “FP average plasma concentrations” value (4 hours after the last administration (day 8)) was 0.096 µg/mL, the “FP average plasma concentrations” value (6 hours after the last administration (day 8)) was 0.067 µg/mL and the “FP average plasma concentrations” value (8 hours after the last administration (day 8)) was 0.045 µg/mL. For the same substance, the “FP average plasma concentrations” value (10 hours after the last administration (day 8)) was 0.029 µg/mL, the “FP average plasma concentrations” value (12 hours after the last administration (day 8)) was 0.020 µg/mL and the “FP average plasma concentrations” value (16 hours after the last administration (day 8)) was 0.008 µg/mL. For the same substance, the “FP average plasma concentrations” value (24 hours after the last administration (day 8)) was 0.001 µg/mL, the FP systemic concentrations (after repeated oral nebulization, healthy volunteers) was “very low” and the AUC0-inf. [1] was 1140 ng·h/mL. The “AUC0-inf. higher than the AUC at the last point” value [1] was “ca. 20%”, the Cmax (after the last administration (day 8), Example 1 composition nebulized in oral cavity, healthy volunteers) was 182 ± 50 ng/mL and the Tmax (after the last administration (day 8), Example 1 composition, healthy volunteers) was 1 h. For the same substance, the AUC0-24 (after the last administration (day 8), linear trapezoidal rule) was 940 ng·h/mL, the “FP average plasma concentrations” value (day 1, time 0 (before the first dose), Example 1 composition, 26 healthy volunteers) was 0.000 µg/mL and the “FP average plasma concentrations” value (day 4, time 0, two 200 μl nebulizations three times a day, Example 1 composition) was 0.043 µg/mL. The “FP average plasma concentrations” value (day 6, time 0, two 200 μl nebulizations three times a day, Example 1 composition) was 0.042 µg/mL, the “FP average plasma concentrations” value (day 7, time 0, two 200 μl nebulizations three times a day, Example 1 composition) was 0.039 µg/mL and the “FP average plasma concentrations” value (day 8, time 0, after seven days of two 200 μl nebulizations three times a day, Example 1 composition) was 0.040 µg/mL. The “amount absorbed, times lower than solutions of the same concentration administered by oral route” value (oropharyngeal application versus literature oral data (Stalker 1991; Gonzalez-Younes 1991)) was “about 10 times” and the “FP accumulation in plasma after repeated administrations” value (three times a day for seven days, plasma on days 1, 4, 6, 7 and 8) was “no FP accumulation”.
